Experimental data from patent publication US20210278408A1, “METHODS OF TREATMENT OF CANCER WITH SUBSTITUTED PYRROLE AND PYRAZOLE COMPOUNDS AND DIAGNOSIS OF CANCERS SUSCEPTIBLE TO TREATMENT WITH SUBSTITUTED PYRROLE AND PYRAZOLE COMPOUNDS” (Bantam Pharmaceutical, LLC, priority 2018, published 2021).
Where two headings read alike, the source gives them in different places.

System: 407 cancer cell lines
Experiment: Cell viability of cancer cell lines (IC50), CellTiter-Glo Viability Assay, 96 h
Assay type: cell-based
Settings: Homo sapiens, read-out: Absolute IC50
Procedure: Viability was determined by using the 50% inhibitory concentration (IC50) as determined with the CellTiter-Glo® Viability Assay (Promega).
Experiments were initiated by first thawing and equilibrating the CellTiter-Glo® Buffer to room temperature. The lyophilized CellTiter-Glo® Substrate was also equilibrated to room temperature. The lyophilized substrate was reconstituted with the CellTiter-Glo® buffer to form the CellTiter-Glo® Reagent.
Cells were harvested during the logarithmic growth period, counted, and the cell concentration adjusted to 4.44×10^4 cells/mL using culture medium.
Cells were allowed to grow overnight and the following day, the TO reading was obtained by adding 10 μL culture medium to each well of Plate A. The plate was allowed to equilibrate at room temperature for thirty minutes, after which 50 μL CellTiter-Glo® reagent was added to each well. The contents were mixed for 5 min on an orbital shaker to induce cell lysis. Plates were incubated for 20 minutes to stabilize the luminescent signal and the TO luminescence recorded.
Test plate B was incubated for 96 h in the humidified incubator at 37° C. with 5% CO2.
Following the incubation, the plate was equilibrated at room temperature for thirty minutes. CellTiter-Glo® (50 μL) was added to each well of the plate and contents mixed for five minutes on an orbital shaker to induce cell lysis. The luminescent signal was allowed to stabilize at room temperature for 20 minutes and the luminescence recorded.
IC50 (EC50) was calculated using a dose-response curve, fitted using a nonlinear regression model with a sigmoidal dose response. Survival rate was calculated using the formula:
The Surviving rate (%)=(LumTest article−LumMedium control)/(LumNon-treated−LumMedium control)×100%.
Absolute IC50 (EC50) was calculated according to the dose-response curve generated by the statistical software (GraphPad Prism 5.0).

Cc1nn(-c2nc(-c3ccc(C(F)(F)F)cc3)c(SC(C)C)s2)c(C(=O)O)c1-c1cccc(F)c1 [Compound A197, 4-(3-fluorophenyl)-1-(5-(isopropylthio)-4-(4-(trifluoromethyl)phenyl)thiazol-2-yl)-3-methyl-1H-pyrazole-5-carboxylic acid]
IC50 (DMS-79, DMS 79): > 30000 nM
IC50 (DMS-114, 96 h, DMS 114 cells, 96 h): > 30000 nM
IC50 (DOHH-2, 96 h, DOHH-2 cells, 96 h): 310 nM
IC50 (DU-145, 96 h, DU 145, 96 h): 850 nM
IC50 (DU-4475, DU4475): 320 nM
IC50 (DV-90, 96 h, DV-90 cells, 96 h): > 30000 nM
IC50 (Daoy, 96 h, Daoy cells, 96 h): > 30000 nM
IC50 (Daudi, 96 h, Daudi cells, 96 h): 810 nM
IC50 (Detroit 562, 96 h, Detroit 562 cells, 96 h): > 30000 nM
IC50 (DoTc2-4510, 96 h, DoTc2 4510 cells, 96 h): > 30000 nM
IC50 (EBC-1, 96 h): > 30000 nM
IC50 (EJM, 96 h, EJM cells, 96 h): 3000 nM
IC50 (EOL1, EOL-1): 740 nM
IC50 (ES-2, 96 h, ES-2 cells, 96 h): > 30000 nM
IC50 (FTC-133, FTC-133): 840 nM
IC50 (FaDu, 96 h, FaDu, 96 h): 380 nM
IC50 (G292, 96 h, G-292 clone A141B1 cells, 96 h): 1860 nM
IC50 (GTL 16, 96 h, GTL-16 cells, 96 h): > 30000 nM
IC50 (Granta-519, GRANTA-519): 1000 nM
IC50 (HCC38, HCC38): > 30000 nM
IC50 (HCC78, 96 h, HCC-78 cells, 96 h): 410 nM
IC50 (HCC827, 96 h, HCC827 cells, 96 h): > 30000 nM
IC50 (HCC1187, 96 h, HCC1187 cells, 96 h): > 30000 nM
IC50 (HCC1428, HCC1428): > 30000 nM
IC50 (HCC1569, HCC1569): > 30000 nM
IC50 (HCC1806, 96 h, HCC1806 cells, 96 h): > 30000 nM
IC50 (HCC1937, HCC1937): > 30000 nM
IC50 (HCC1954, HCC1954): > 30000 nM
IC50 (HCC2218, 96 h): > 30000 nM
IC50 (HCC2935, HCC2935): > 30000 nM
IC50 (HCC4006, 96 h): 460 nM
IC50 (HCCLM3, 96 h, HCCLM3 cells, 96 h): > 30000 nM
IC50 (HCT-8, HCT-8): 770 nM
IC50 (HCT-15, HCT-15): 300 nM
IC50 (HCT-116, HCT-116): 920 nM
IC50 (HEC-1-A, 96 h, HEC-1-A cells, 96 h): > 30000 nM
IC50 (HEC-1B, 96 h, HEC-1-B cells, 96 h): 550 nM
IC50 (HEL 92.1.7, HEL 92.1.7): 380 nM
IC50 (HGC-27, 96 h, HGC-27 cells, 96 h): 510 nM
IC50 (HL-60, HL-60): 990 nM
IC50 (HLE, 96 h, HLE cells, 96 h): > 30000 nM
IC50 (HOS, 96 h, HOS cells, 96 h): > 30000 nM
IC50 (HPAC): 460 nM
IC50 (HT55, HT-55): > 30000 nM
IC50 (HT-3, 96 h, HT-3 cells, 96 h): > 30000 nM
IC50 (HT-29, HT-29): 1270 nM
IC50 (HT-1080, 96 h): 1040 nM
IC50 (HT-1376, HT-1376): > 30000 nM
IC50 (HeLa 229, 96 h, HeLa 229 cells, 96 h): > 30000 nM
IC50 (HeLa, 96 h, HeLa cells, 96 h): 1740 nM
IC50 (Hep3B): > 30000 nM
IC50 (HepG2, Hep G2): > 30000 nM
IC50 (HuCCT-1, 96 h, HuCCT1, 96 h): > 30000 nM
IC50 (HuH-1, HUH-1): > 30000 nM
IC50 (HuT78, HuT 78): 630 nM
IC50 (HuTu80, Hutu 80): 860 nM
IC50 (Huh-7, 96 h, HUH-7 cells, 96 h): 1050 nM
IC50 (IMR-32, 96 h, IMR-32 cells, 96 h): 800 nM
IC50 (Ishikawa, 96 h, Ishikawa, 96 h): 290 nM
IC50 (J82, 96 h, J82 cells, 96 h): 1110 nM
IC50 (JEG-3, 96 h, JEG-3 cells, 96 h): 1080 nM
IC50 (JIMT-1, 96 h, JIMT-1 cells, 96 h): > 30000 nM
IC50 (JJN-3, 96 h, JJN-3 cells, 96 h): 1340 nM
IC50 (JVM-2, JVM-2): 730 nM
IC50 (JVM-3, JVM-3): 270 nM
IC50 (JeKo-1, 96 h, JeKo-1 cells, 96 h): 790 nM
IC50 (Jurkat, Jurkat clone E6-1): 640 nM
IC50 (K562, K-562): 570 nM
IC50 (KARPAS-299, 96 h, KARPAS-299 cells, 96 h): > 30000 nM
IC50 (KARPAS-422, KARPAS-422): 780 nM
IC50 (KATO III, 96 h, KATO III, 96 h): > 30000 nM
IC50 (KG-1, KG-1): 1050 nM
IC50 (KHOS/NP, 96 h, KHOS/NP cells, 96 h): > 30000 nM
IC50 (KM-H2, 96 h, KMH-2 cells, 96 h): 1440 nM
IC50 (KMS-11, KMS-11): 630 nM
IC50 (KP-4, 96 h, KP4 cells, 96 h): 530 nM
IC50 (KYSE-70, KYSE-70): 460 nM
IC50 (KYSE-150, KYSE-150): 750 nM
IC50 (KYSE-270, KYSE-270): 4780 nM
IC50 (KYSE-410, 96 h, KYSE-410 cells, 96 h): > 301000 nM
IC50 (Kasumi 1, Kasumi-1): 1090 nM
IC50 (L-363, L-363): 880 nM
IC50 (LN-18, 96 h, LN-18 cells, 96 h): 520 nM
IC50 (LN-229, 96 h, LN-229 cells, 96 h): > 30000 nM
IC50 (LNCaP-Clone-FGC, 96 h, LNCaP clone FGC, 96 h): 180 nM
IC50 (LP-1, LP-1): 490 nM
IC50 (LS180, LS 180): > 30000 nM
IC50 (LS-123, 96 h, LS123 cells, 96 h): > 30000 nM
IC50 (LS-411N, LS411N): 700 nM
IC50 (LS-513, 96 h, LS513 cells, 96 h): 700 nM
IC50 (LS-1034, 96 h, LS1034 cells, 96 h): > 30000 nM
IC50 (LoVo): > 30000 nM
IC50 (MCF7, MCF7): > 30000 nM
IC50 (MDA-MB-231, MDA-MB-231): > 30000 nM
IC50 (MDA-MB-415, MDA-MB-415): > 30000 nM
IC50 (MDA-MB-436, 96 h): > 30000 nM
IC50 (MDA-MB-453, MDA-MB-453): > 30000 nM
IC50 (MDA-MB-468, 96 h, MDA-MB-468 cells, 96 h): 520 nM
IC50 (ME-180, 96 h, ME-180 cells, 96 h): 550 nM
IC50 (MEG-01, MEG-01): 1560 nM
IC50 (MES-SA, 96 h, MES-SA cells, 96 h): 490 nM
IC50 (MES-SA/Dx5, 96 h, MES-SA/DX5 cells, 96 h): 340 nM
IC50 (MFE-296, 96 h, MFE-296 cells, 96 h): > 30000 nM
IC50 (MHCC97H, MHCC97-H): 3250 nM
IC50 (MIA PaCa-2, MIA PaCa-2): 2890 nM
IC50 (MKN-1, 96 h, MKN1 cells, 96 h): 2930 nM
IC50 (MKN-45, 96 h, MKN45, 96 h): > 30000 nM
IC50 (MKN-74, 96 h, MKN74 cells, 96 h): > 30000 nM
IC50 (ML-2, ML-2): 460 nM
IC50 (MM1.S, MM.1S): > 30000 nM
IC50 (MOLM-13, 96 h, MOLM-13 cells, 96 h): 870 nM
IC50 (MOLP-8, 96 h, MOLP8 cells, 96 h): 990 nM
IC50 (MOLT-4, Molt-4): 620 nM
IC50 (MSTO-211H, 211 h, MsTo 211H): 550 nM
IC50 (MV4-11, 96 h, MV-4-11 cells, 96 h): 320 nM
IC50 (MX1, MX-1): > 30000 nM
IC50 (NALM-6, NALM-6): 700 nM
IC50 (NB-4, 96 h, NB4 cells, 96 h): 110 nM
IC50 (NCI-H23, 96 h, NCI-H23 cells, 96 h): 760 nM
IC50 (NCI-H69, 96 h, NCI-H69 cells, 96 h): > 30000 nM
IC50 (NCI-H82, 96 h): 760 nM
IC50 (NCI-H146, 96 h, NCI-H146 cells, 96 h): > 30000 nM
IC50 (NCI-H187, NCI-H187): 330 nM
IC50 (NCI-H209, 96 h, NCI-H209 cells, 96 h): > 30000 nM
IC50 (NCI-H226, NCI-H226): 2080 nM
